Read-outs that look alike come from different tables or passages of the source.
Columns and labels:
Format in all cases: biochemical
aggrecanase-1 = biological target: T1, aggrecanase-1 (Homo sapiens, UniProt O75173); test: Aggrecanase-1 inhibitory action (Particle Assay, GAG release from aggrecan-containing polyacrylamide particles)
T1 sequence (O75173 213-837): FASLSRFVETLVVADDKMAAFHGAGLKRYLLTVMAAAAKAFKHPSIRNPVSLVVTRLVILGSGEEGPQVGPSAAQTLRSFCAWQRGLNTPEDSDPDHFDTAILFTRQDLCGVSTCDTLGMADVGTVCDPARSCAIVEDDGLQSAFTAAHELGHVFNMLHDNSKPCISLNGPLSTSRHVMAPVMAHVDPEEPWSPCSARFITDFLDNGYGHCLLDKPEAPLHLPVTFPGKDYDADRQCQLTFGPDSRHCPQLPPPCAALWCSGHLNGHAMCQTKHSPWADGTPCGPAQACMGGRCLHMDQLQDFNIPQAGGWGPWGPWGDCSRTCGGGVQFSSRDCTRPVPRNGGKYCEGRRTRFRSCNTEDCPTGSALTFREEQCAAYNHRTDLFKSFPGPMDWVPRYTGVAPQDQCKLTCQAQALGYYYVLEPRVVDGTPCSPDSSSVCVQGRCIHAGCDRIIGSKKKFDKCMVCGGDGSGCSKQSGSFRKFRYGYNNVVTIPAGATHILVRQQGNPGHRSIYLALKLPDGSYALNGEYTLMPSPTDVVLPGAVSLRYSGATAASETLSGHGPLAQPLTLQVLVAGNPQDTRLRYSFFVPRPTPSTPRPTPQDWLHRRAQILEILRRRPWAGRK
Outline: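 Readout was dimethylmethylene blue absorbance (595 nm) of glycosaminoglycan liberated into supernatant, calibrated with whale chondroitin sulfate. Substrate was aggrecan in polyacrylamide particles, digested 15 h at 37° C in Tris-HCl; TC50 (μM) derived from inhibition relative to no-enzyme and no-inhibitor controls.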

MMP-1 = biological target: T2, MMP-1 (Homo sapiens, UniProt P03956); test: MMP-1 inhibitory action (Type I collagen Activity Measurement kit, FITC-labeled collagen type I)
T2 sequence (P03956 100-469): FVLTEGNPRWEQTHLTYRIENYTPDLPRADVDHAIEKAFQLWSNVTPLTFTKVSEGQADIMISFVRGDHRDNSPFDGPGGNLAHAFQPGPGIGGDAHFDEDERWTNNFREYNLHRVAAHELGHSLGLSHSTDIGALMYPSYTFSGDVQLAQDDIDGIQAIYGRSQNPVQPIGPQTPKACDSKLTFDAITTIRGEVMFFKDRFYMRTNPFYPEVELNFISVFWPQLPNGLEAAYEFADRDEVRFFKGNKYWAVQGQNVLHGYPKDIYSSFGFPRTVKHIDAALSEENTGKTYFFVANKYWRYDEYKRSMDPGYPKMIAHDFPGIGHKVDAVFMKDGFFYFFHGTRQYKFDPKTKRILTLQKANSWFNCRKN

Recombinant Human MMP-13 = biological target: T3, Recombinant Human MMP-13 (Homo sapiens, UniProt P45452); test: MMP-13 inhibitory activity (MMP-13 specific fluorescent substrate with quencher)
T3 construct: purchased R&D systems 511-MM
Outline: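 IC50 (μM) derived from % inhibition, normalised to wells without enzyme and without inhibitor, fluorescence read at 325/405 nm. Enzyme and compound preceded addition of the quenched 7-MCA…DPA substrate; Tris-HCl buffer, 25 °C for 1 h, acetic-acid stop.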

[1] = aggrecanase-1 inhibitory action, read-out: IC50 AG1 (Experimental Example 1)
[2] = MMP-1 inhibitory action, FITC-labeled collagen type I, 37° C. for 3 hr, read-out: IC50 MMP1 (Experimental Example 2)
[3] = Recombinant Human MMP-13, fluorescent substrate, 25° C. for 1 h, read-out: IC50 MMP13 (Experimental Example 3)
[4] = Experimental Example 1, read-out: IC50 AG1
[5] = Experimental Example 2, read-out: IC50 MMP1
[6] = Experimental Example 3, read-out: IC50 MMP13

SMILES | IC50 (aggrecanase-1; [1]) | IC50 (MMP-1; [2]) | IC50 (Recombinant Human MMP-13; [3]) | IC50 (aggrecanase-1; [4]) | IC50 (MMP-1; [5]) | IC50 (Recombinant Human MMP-13; [6])
CC(C)(C)OC(=O)N1CC=C(c2ccc(S(=O)(=O)N[C@@]3(C(=O)O)C[C@@H]3c3ccccc3)s2)CC1 [Example 2, 4-[5-((1S,2R)-1-carboxy-2-phenyl-cyclopropanesulfamoyl)-thiophene-2-yl]-3,6-dihydro-2H-pyridin-1-carboxylic acid t-butyl ester] | ≥ 1000 nM | ≥ 10 µM | ≥ 10000 nM | – | – | –
CN1CC=C(c2ccc(S(=O)(=O)N[C@@]3(C(=O)O)C[C@@H]3c3ccccc3)s2)CC1 [Example 2-172] | ≥ 10000 nM | ≥ 10 µM | ≥ 1000 nM | – | – | –
CC1[C@H](c2ccccc2)[C@]1(NS(=O)(=O)N1CCCN(c2ccc(Cl)cn2)CC1)C(=O)O (stereo partly drawn) [Example 2-461] | – | – | – | < 1000 nM | ≥ 10 µM | ≥ 1000 nM
O=C(O)[C@]1(NS(=O)(=O)c2ccc(-c3ccc(Cl)cc3)s2)C[C@@H]1c1cccc(NCc2cccnc2)c1 [Example 2-173] | < 100 nM | ≥ 1 µM | < 100 nM | – | – | –
O=C(O)CSCC1(c2ccccc2)CC1(NS(=O)(=O)c1ccc(-c2cc(C(F)(F)F)on2)s1)C(=O)O (stereo not drawn) [Example 2-410] | – | – | – | < 100 nM | ≥ 1 µM | ≥ 1000 nM
O=C(O)C1(NS(=O)(=O)c2ccc(-c3ccc(Cl)cc3)cc2)CC1c1cccc(Oc2cccnc2)c1 (stereo not drawn) [Example 1-68] | < 1000 nM | ≥ 1 µM | < 100 nM | – | – | –
O=C(O)C1(NS(=O)(=O)c2ccc(-c3cc(C(F)(F)F)on3)s2)CC1c1cc(CO)on1 (stereo not drawn) [Example 2-318] | – | – | – | ≥ 1000 nM | ≥ 10 µM | ≥ 10000 nM
CN1CCN(CC2(c3ccccc3)CC2(NS(=O)(=O)c2ccc(-c3cc(C(F)(F)F)on3)s2)C(=O)O)CC1 (stereo not drawn) [Example 2-342] | – | – | – | < 1000 nM | ≥ 1 µM | ≥ 1000 nM
O=C(O)C1(NS(=O)(=O)N2CCC(Oc3ccccc3)CC2)CC1c1ccccc1 (stereo not drawn) [Example 2-143] | ≥ 10000 nM | ≥ 10 µM | ≥ 1000 nM | – | – | –
O=C(O)C1(NS(=O)(=O)c2ccc(-c3ccc(OC(F)(F)F)cc3)s2)CC1c1ccccc1 (stereo not drawn) [Example 2-17] | ≥ 1000 nM | ≥ 10 µM | < 100 nM | – | – | –
CC(=O)Nc1cccc(-c2ccc(S(=O)(=O)N[C@@]3(C(=O)O)C[C@]3(C)c3ccccc3)s2)c1 [Example 2-480] | – | – | – | < 1000 nM | < 1 µM | < 100 nM
O=C(O)C1(NS(=O)(=O)c2ccc(-c3ccc(Cl)cc3)cc2)CC1c1cccc(Oc2ccccc2)c1 (stereo not drawn) [Example 1-10] | < 1000 nM | ≥ 1 µM | < 1000 nM | – | – | –
CC1[C@H](c2ccccc2)[C@]1(NS(=O)(=O)c1ccc(-c2ccc3nsnc3c2)s1)C(=O)O (stereo partly drawn) [Example 2-497] | – | – | – | < 100 nM | ≥ 1 µM | < 100 nM
O=C(O)C1(NS(=O)(=O)c2ccc(-c3ccc(Cl)cc3)s2)CC1c1cccc(CCO)c1 (stereo not drawn) [Example 2-109] | < 100 nM | ≥ 10 µM | < 100 nM | – | – | –
O=C(O)C1(NS(=O)(=O)c2ccc(-c3cc(C(F)(F)F)on3)s2)C2CCC(O)c3ccccc3C21 (stereo not drawn) [Example 2-437] | – | – | – | < 100 nM | < 1 µM | < 100 nM
CCC1(c2ccccc2)CC1(NS(=O)(=O)c1ccc2c(c1)Cc1cc(F)ccc1-2)C(=O)O (stereo not drawn) [Example 2-146] | < 1000 nM | ≥ 10 µM | < 1000 nM | – | – | –

SMILES | IC50 (aggrecanase-1; [1]) | IC50 (MMP-1; [2]) | IC50 (Recombinant Human MMP-13; [3]) | IC50 (aggrecanase-1; [4]) | IC50 (MMP-1; [5]) | IC50 (Recombinant Human MMP-13; [6])
O=C(O)C1(CS(=O)(=O)N2CCN(c3ccc(C(F)(F)F)cn3)CC2)CC1c1ccccc1 (stereo not drawn) [Example 2-185] | ≥ 1000 nM | ≥ 10 µM | < 1000 nM | – | – | –
O=C(O)c1ccccc1C1CC1(NS(=O)(=O)c1ccc(-c2ccc(Cl)cc2)s1)C(=O)O (stereo not drawn) [Example 2-196] | < 100 nM | ≥ 1 µM | < 100 nM | – | – | –
O=C(O)C1(NS(=O)(=O)N2CCC(Oc3ccc(F)cc3)CC2)CC1c1ccccc1 (stereo not drawn) [Example 2-145] | ≥ 10000 nM | ≥ 10 µM | ≥ 1000 nM | – | – | –
CC1[C@H](c2ccccc2)[C@]1(NS(=O)(=O)N1Cc2ccc(Cl)cc2C1)C(=O)O (stereo partly drawn) [Example 2-538] | – | – | – | ≥ 1000 nM | ≥ 1 µM | < 1000 nM
CN1CCN(C(=O)c2cccc(C3CC3(NS(=O)(=O)c3ccc(-c4ccc(Cl)cc4)s3)C(=O)O)c2)CC1 (stereo not drawn) [Example 2-200] | < 1000 nM | ≥ 10 µM | < 1000 nM | – | – | –
COCCCC1(c2ccccc2)CC1(NS(=O)(=O)c1ccc(-n2cc(Cl)cn2)s1)C(=O)O (stereo not drawn) [Example 2-560] | – | – | – | < 1000 nM | ≥ 1 µM | < 1000 nM
CC(C)S(=O)(=O)CC1(c2ccccc2)CC1(NS(=O)(=O)c1ccc(-c2ccc(Cl)cc2)s1)C(=O)O (stereo not drawn) [Example 2-348] | – | – | – | < 1000 nM | ≥ 10 µM | < 1000 nM
CCOC(=O)NCC1(c2ccccc2)CC1(NS(=O)(=O)c1ccc(-c2ccc(Cl)cc2)s1)C(=O)O (stereo not drawn) [Example 2-384] | – | – | – | < 1000 nM | ≥ 10 µM | < 100 nM
O=C1CCCN1c1ccc(S(=O)(=O)N[C@@]2(C(=O)O)C[C@@H]2c2ccccc2)s1 [Example 2-163] | ≥ 10000 nM | ≥ 10 µM | ≥ 10000 nM | – | – | –
O=C(OCCCc1ccccc1C1CC1(NS(=O)(=O)c1ccc(-c2cc(C(F)(F)F)on2)s1)C(=O)O)N1CCC[C@H]1CO (stereo partly drawn) [Example 2-254] | < 100 nM | ≥ 1 µM | < 100 nM | – | – | –
O=C(CCc1cccc(C2CC2(NS(=O)(=O)c2ccc(-c3cc(C(F)(F)F)on3)s2)C(=O)O)c1)N1CCOCC1 (stereo not drawn) [Example 2-234] | < 100 nM | ≥ 1 µM | < 100 nM | – | – | –
CC1(C)C(c2ccccc2)C1(NS(=O)(=O)c1ccc(-c2ccc(Cl)cc2)s1)C(=O)O (stereo not drawn) [Example 2-274] | – | – | – | < 100 nM | ≥ 10 µM | ≥ 1000 nM
CC1C(c2ccccc2)C1(NS(=O)(=O)c1ccc(-c2ccc(Cl)cc2)s1)C(=O)O (stereo not drawn) [Example 2-237] | < 100 nM | ≥ 1 µM | < 100 nM | – | – | –
O=C(O)C1(NS(=O)(=O)c2ccc(-c3ccc(Cl)cc3)s2)CC1c1cccc(OCc2ccccn2)c1 (stereo not drawn) [Example 1-108] | < 100 nM | ≥ 1 µM | < 100 nM | – | – | –
COCc1cn2cc(S(=O)(=O)N[C@@]3(C(=O)O)C[C@]3(C)c3ccccc3)sc2n1 [Example 2-519] | – | – | – | ≥ 1000 nM | ≥ 1 µM | ≥ 1000 nM
O=C1OCC2C(c3ccccc3)C12NS(=O)(=O)c1ccc(-c2cc(C(F)(F)F)on2)s1 (stereo not drawn) [Example 2-312] | – | – | – | ≥ 1000 nM | ≥ 10 µM | ≥ 10000 nM

From US20080261994A1, “CYCLOPROPANE COMPOUNDS AND PHARMACEUTICAL USE THEREOF” (Japan Tobacco Inc., priority 2003, published 2008)
